From ChEMBL document CHEMBL1140101, “Synthesis, binding affinity, and molecular docking analysis of new benzofuranone derivatives as potential antipsychotics” (J Med Chem, 2008)

How the values were obtained:
[1] = molecular target: T1, 5-hydroxytryptamine receptor 2A (Homo sapiens, UniProt P28223); assay: Displacement of [3H]ketanserin from human cloned 5HT2A receptor
[2] = molecular target: T2, 5-hydroxytryptamine receptor 2C (Homo sapiens, UniProt P28335); assay: Displacement of [3H]mesulergine from human cloned 5HT2C receptor
T2 sequence (P28335 whole entry): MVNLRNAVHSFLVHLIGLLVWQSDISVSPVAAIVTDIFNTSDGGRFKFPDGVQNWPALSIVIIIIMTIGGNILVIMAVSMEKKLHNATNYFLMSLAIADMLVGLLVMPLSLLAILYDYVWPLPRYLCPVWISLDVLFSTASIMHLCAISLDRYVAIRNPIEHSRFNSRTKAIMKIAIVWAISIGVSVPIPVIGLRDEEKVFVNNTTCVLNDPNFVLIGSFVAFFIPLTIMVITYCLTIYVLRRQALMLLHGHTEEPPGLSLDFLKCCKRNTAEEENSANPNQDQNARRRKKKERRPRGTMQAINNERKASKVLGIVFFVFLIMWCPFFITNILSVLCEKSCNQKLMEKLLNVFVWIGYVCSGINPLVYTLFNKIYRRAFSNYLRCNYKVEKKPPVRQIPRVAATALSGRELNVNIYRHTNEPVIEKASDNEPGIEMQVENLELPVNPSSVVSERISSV

[3] = molecular target: T1, 5-hydroxytryptamine receptor 2A; assay: Antagonist activity at human cloned 5HT2A receptor; assay type: functional

T1 sequence (P28223 whole entry): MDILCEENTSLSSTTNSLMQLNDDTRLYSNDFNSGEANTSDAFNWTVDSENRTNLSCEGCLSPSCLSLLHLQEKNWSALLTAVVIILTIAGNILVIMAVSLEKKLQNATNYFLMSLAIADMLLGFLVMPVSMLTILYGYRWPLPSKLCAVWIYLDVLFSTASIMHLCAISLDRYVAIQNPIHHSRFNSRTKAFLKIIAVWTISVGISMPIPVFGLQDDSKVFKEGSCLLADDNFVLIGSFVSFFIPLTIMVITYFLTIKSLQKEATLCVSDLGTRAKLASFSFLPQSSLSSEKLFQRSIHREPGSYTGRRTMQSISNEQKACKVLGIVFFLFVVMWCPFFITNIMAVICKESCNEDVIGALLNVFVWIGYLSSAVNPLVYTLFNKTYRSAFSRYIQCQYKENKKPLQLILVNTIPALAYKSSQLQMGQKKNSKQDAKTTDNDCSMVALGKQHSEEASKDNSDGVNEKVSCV

SMILES	Ki [1] [nM]	Ki [2] [nM]	pA2 [3]
O=C1CC(CN2CCN(C(=O)c3ccc(F)cc3)CC2)Cc2occc21 (stereo not drawn)	1320	> 10000	
CCOC(=O)c1oc2c(c1C)C(=O)CC(CN1CCC(C(=O)c3ccc(F)cc3)CC1)C2 (stereo not drawn)	21.9	> 10000	
COC(=O)c1coc2c1C(=O)CC(CN1CCC(C(=O)c3ccc(F)cc3)CC1)C2 (stereo not drawn)	25.7	> 10000	
CCOC(=O)c1oc2c(c1C)C(=O)CC(CN1CCC(c3noc4cc(F)ccc34)CC1)C2 (stereo not drawn)	8.32	> 10000	
O=C1C[C@@H](CN2CCC(c3noc4cc(F)ccc34)CC2)Cc2occc21	2.51	245	
O=C1CC(CN2CCC(c3noc4cc(F)ccc34)CC2)Cc2oc(-c3ccccc3)cc21 (stereo not drawn)	6.92	3310	
O=C(c1ccc(F)cc1)C1CCN(CCC2CCc3occc3C2=O)CC1 (stereo not drawn)	77.6	339	7.58
O=C1CC(CN2CCC(C(=O)c3ccc(F)cc3)CC2)Cc2oc(-c3ccccc3)cc21 (stereo not drawn)	17.4	> 10000	
O=C1CC(CN2CCC(C(=O)c3ccc(F)cc3)CC2)Cc2occc21 (stereo not drawn)	95.5	1550	7.28
O=C1CC(CN2CCC(c3noc4cc(F)ccc34)CC2)Cc2occc21 (racemic)	5.5	339	7.95
O=C1C[C@H](CN2CCC(c3noc4cc(F)ccc34)CC2)Cc2occc21	5.13	372	
O=C1c2ccoc2CCC1CCN1CCC(c2noc3cc(F)ccc23)CC1 (stereo not drawn)			9.25
COC(=O)c1coc2c1C(=O)CC(CN1CCC(c3noc4cc(F)ccc34)CC1)C2 (stereo not drawn)	1.55	> 10000	
